Source: the supplement of paper PMC10307832

What was measured:
Assay in all cases: relative viability (nuclei count vs DMSO), 5 days (fraction); higher = more cells survive
Kobe2602 + Trametinib = compound: C1=CC(=CC=C1NC(=S)NNC2=C(C=C(C=C2[N+](=O)[O-])C(F)(F)F)[N+](=O)[O-])F [Kobe2602] + CC(=O)Nc1cccc(-n2c(=O)n(C3CC3)c(=O)c3c(Nc4ccc(I)cc4F)n(C)c(=O)c(C)c32)c1 [Trametinib] (partner 0.02 µM)
Outline: (§1)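 Nuclei were stained with Hoechst during a one-step fixation (final 0.05% Triton X-100, 1% formaldehyde, 1 ug/ml Hoechst) carried out 5 days after dosing, then counted on 4× images. The cells, lung cancer lines in 1536-well plates, had been dosed by pin tool the day after seeding with one drug alone or a fixed anchor-drug dose plus five library-drug doses (not always all listed) in √10 steps. Relative viability is the nuclei count in treated wells divided by that in vehicle wells, and each value is the median of duplicate plates.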

Kobe2602 + OSI-027 = compound: C1=CC(=CC=C1NC(=S)NNC2=C(C=C(C=C2[N+](=O)[O-])C(F)(F)F)[N+](=O)[O-])F [Kobe2602] + COc1cccc2cc(-c3nc([C@H]4CC[C@H](C(=O)O)CC4)n4ncnc(N)c34)[nH]c12 [OSI-027] (partner 0.5 µM)
Outline: as §1

Zosuquidar + Linsitinib = compound: O[C@@H](COc1cccc2ncccc12)CN1CCN([C@@H]2c3ccccc3[C@@H]3[C@H](c4ccccc42)C3(F)F)CC1 [Zosuquidar] + C[C@]1(O)C[C@@H](c2nc(-c3ccc4ccc(-c5ccccc5)nc4c3)c3c(N)nccn32)C1 [Linsitinib] (partner 1 µM)
Outline: as §1

Zosuquidar + Tozasertib = compound: O[C@@H](COc1cccc2ncccc12)CN1CCN([C@@H]2c3ccccc3[C@@H]3[C@H](c4ccccc42)C3(F)F)CC1 [Zosuquidar] + Cc1cc(Nc2cc(N3CCN(C)CC3)nc(Sc3ccc(NC(=O)C4CC4)cc3)n2)n[nH]1 [Tozasertib] (partner 0.1 µM)
Outline: as §1

NCI-H1437
relative viability (Kobe2602 + Trametinib; first compound 0.2 µM): 0.458
relative viability (Kobe2602 + Trametinib; first compound 0.6325 µM): 0.463
relative viability (Kobe2602 + Trametinib; first compound 2 µM): 0.519
relative viability (Kobe2602 + Trametinib; first compound 6.325 µM): 0.603
relative viability (Kobe2602 + Trametinib; first compound 20 µM): 0.419
relative viability (Kobe2602 + OSI-027; first compound 0.2 µM): 0.913
relative viability (Kobe2602 + OSI-027; first compound 0.6325 µM): 0.913
relative viability (Kobe2602 + OSI-027; first compound 2 µM): 0.891
relative viability (Kobe2602 + OSI-027; first compound 6.325 µM): 0.949
relative viability (Kobe2602 + OSI-027; first compound 20 µM): 0.855
relative viability (Zosuquidar + Linsitinib; first compound 0.01 µM): 1.06
relative viability (Zosuquidar + Linsitinib; first compound 0.03162 µM): 1.01
relative viability (Zosuquidar + Linsitinib; first compound 0.1 µM): 0.936
relative viability (Zosuquidar + Linsitinib; first compound 0.3162 µM): 1.08
relative viability (Zosuquidar + Linsitinib; first compound 1 µM): 1.05
relative viability (Zosuquidar + Tozasertib; first compound 0.01 µM): 0.41
relative viability (Zosuquidar + Tozasertib; first compound 0.03162 µM): 0.408
relative viability (Zosuquidar + Tozasertib; first compound 0.1 µM): 0.424
relative viability (Zosuquidar + Tozasertib; first compound 0.3162 µM): 0.396
relative viability (Zosuquidar + Tozasertib; first compound 1 µM): 0.381

NCI-H1651
relative viability (Kobe2602 + Trametinib; first compound 0.2 µM): 0.822
relative viability (Kobe2602 + Trametinib; first compound 0.6325 µM): 0.827
relative viability (Kobe2602 + Trametinib; first compound 2 µM): 0.847
relative viability (Kobe2602 + Trametinib; first compound 6.325 µM): 0.87
relative viability (Kobe2602 + Trametinib; first compound 20 µM): 0.875
relative viability (Kobe2602 + OSI-027; first compound 0.2 µM): 0.604
relative viability (Kobe2602 + OSI-027; first compound 0.6325 µM): 0.663
relative viability (Kobe2602 + OSI-027; first compound 2 µM): 0.674
relative viability (Kobe2602 + OSI-027; first compound 6.325 µM): 0.618
relative viability (Kobe2602 + OSI-027; first compound 20 µM): 0.652
relative viability (Zosuquidar + Linsitinib; first compound 0.01 µM): 0.937
relative viability (Zosuquidar + Linsitinib; first compound 0.03162 µM): 1.01
relative viability (Zosuquidar + Linsitinib; first compound 0.1 µM): 0.895
relative viability (Zosuquidar + Linsitinib; first compound 0.3162 µM): 0.939
relative viability (Zosuquidar + Linsitinib; first compound 1 µM): 0.953
relative viability (Zosuquidar + Tozasertib; first compound 0.01 µM): 0.603
relative viability (Zosuquidar + Tozasertib; first compound 0.03162 µM): 0.607
relative viability (Zosuquidar + Tozasertib; first compound 0.1 µM): 0.782
relative viability (Zosuquidar + Tozasertib; first compound 0.3162 µM): 0.627
relative viability (Zosuquidar + Tozasertib; first compound 1 µM): 0.623

NCI-H1666
relative viability (Kobe2602 + Trametinib; first compound 0.2 µM): 0.824
relative viability (Kobe2602 + Trametinib; first compound 0.6325 µM): 0.836
relative viability (Kobe2602 + Trametinib; first compound 2 µM): 0.766
relative viability (Kobe2602 + Trametinib; first compound 6.325 µM): 0.89
relative viability (Kobe2602 + Trametinib; first compound 20 µM): 0.808
relative viability (Kobe2602 + OSI-027; first compound 0.2 µM): 0.879
relative viability (Kobe2602 + OSI-027; first compound 0.6325 µM): 0.831
relative viability (Kobe2602 + OSI-027; first compound 2 µM): 0.851
relative viability (Kobe2602 + OSI-027; first compound 6.325 µM): 0.928
relative viability (Kobe2602 + OSI-027; first compound 20 µM): 0.789
relative viability (Zosuquidar + Linsitinib; first compound 0.01 µM): 0.759
relative viability (Zosuquidar + Linsitinib; first compound 0.03162 µM): 0.832
relative viability (Zosuquidar + Linsitinib; first compound 0.1 µM): 0.768
relative viability (Zosuquidar + Linsitinib; first compound 0.3162 µM): 0.817
relative viability (Zosuquidar + Linsitinib; first compound 1 µM): 0.78
relative viability (Zosuquidar + Tozasertib; first compound 0.01 µM): 0.596
relative viability (Zosuquidar + Tozasertib; first compound 0.03162 µM): 0.62
relative viability (Zosuquidar + Tozasertib; first compound 0.1 µM): 0.666
relative viability (Zosuquidar + Tozasertib; first compound 0.3162 µM): 0.587
relative viability (Zosuquidar + Tozasertib; first compound 1 µM): 0.592

NCI-H1734
relative viability (Kobe2602 + Trametinib; first compound 0.2 µM): 0.618
relative viability (Kobe2602 + Trametinib; first compound 0.6325 µM): 0.77
relative viability (Kobe2602 + Trametinib; first compound 2 µM): 0.664
relative viability (Kobe2602 + Trametinib; first compound 6.325 µM): 0.711
relative viability (Kobe2602 + Trametinib; first compound 20 µM): 0.695
relative viability (Kobe2602 + OSI-027; first compound 0.2 µM): 0.657
relative viability (Kobe2602 + OSI-027; first compound 0.6325 µM): 0.68
relative viability (Kobe2602 + OSI-027; first compound 2 µM): 0.619
relative viability (Kobe2602 + OSI-027; first compound 6.325 µM): 0.588
relative viability (Kobe2602 + OSI-027; first compound 20 µM): 0.745
relative viability (Zosuquidar + Linsitinib; first compound 0.01 µM): 0.894
relative viability (Zosuquidar + Linsitinib; first compound 0.03162 µM): 0.97
relative viability (Zosuquidar + Linsitinib; first compound 0.1 µM): 0.816
relative viability (Zosuquidar + Linsitinib; first compound 0.3162 µM): 0.963
relative viability (Zosuquidar + Linsitinib; first compound 1 µM): 0.949
relative viability (Zosuquidar + Tozasertib; first compound 0.01 µM): 0.263
relative viability (Zosuquidar + Tozasertib; first compound 0.03162 µM): 0.254
relative viability (Zosuquidar + Tozasertib; first compound 0.1 µM): 0.243
relative viability (Zosuquidar + Tozasertib; first compound 0.3162 µM): 0.268
relative viability (Zosuquidar + Tozasertib; first compound 1 µM): 0.263

NCI-H1755
relative viability (Kobe2602 + Trametinib; first compound 0.2 µM): 0.825
relative viability (Kobe2602 + Trametinib; first compound 0.6325 µM): 0.728
relative viability (Kobe2602 + Trametinib; first compound 2 µM): 0.779
relative viability (Kobe2602 + Trametinib; first compound 6.325 µM): 0.766
relative viability (Kobe2602 + Trametinib; first compound 20 µM): 0.726
relative viability (Kobe2602 + OSI-027; first compound 0.2 µM): 0.748
relative viability (Kobe2602 + OSI-027; first compound 0.6325 µM): 0.726
relative viability (Kobe2602 + OSI-027; first compound 2 µM): 0.685
relative viability (Kobe2602 + OSI-027; first compound 6.325 µM): 0.705
relative viability (Kobe2602 + OSI-027; first compound 20 µM): 0.747
relative viability (Zosuquidar + Linsitinib; first compound 0.01 µM): 0.948
relative viability (Zosuquidar + Linsitinib; first compound 0.03162 µM): 0.977
relative viability (Zosuquidar + Linsitinib; first compound 0.1 µM): 0.958
relative viability (Zosuquidar + Linsitinib; first compound 0.3162 µM): 1.01
relative viability (Zosuquidar + Linsitinib; first compound 1 µM): 0.965
relative viability (Zosuquidar + Tozasertib; first compound 0.01 µM): 0.541
relative viability (Zosuquidar + Tozasertib; first compound 0.03162 µM): 0.634
relative viability (Zosuquidar + Tozasertib; first compound 0.1 µM): 0.535
relative viability (Zosuquidar + Tozasertib; first compound 0.3162 µM): 0.634
relative viability (Zosuquidar + Tozasertib; first compound 1 µM): 0.564

NCI-H1793
relative viability (Kobe2602 + Trametinib; first compound 0.2 µM): 0.437
relative viability (Kobe2602 + Trametinib; first compound 0.6325 µM): 0.459
relative viability (Kobe2602 + Trametinib; first compound 2 µM): 0.449
relative viability (Kobe2602 + Trametinib; first compound 6.325 µM): 0.394
relative viability (Kobe2602 + Trametinib; first compound 20 µM): 0.399
relative viability (Kobe2602 + OSI-027; first compound 0.2 µM): 0.252
relative viability (Kobe2602 + OSI-027; first compound 0.6325 µM): 0.218
relative viability (Kobe2602 + OSI-027; first compound 2 µM): 0.238
relative viability (Kobe2602 + OSI-027; first compound 6.325 µM): 0.275
relative viability (Kobe2602 + OSI-027; first compound 20 µM): 0.327
relative viability (Zosuquidar + Linsitinib; first compound 0.01 µM): 0.748
relative viability (Zosuquidar + Linsitinib; first compound 0.03162 µM): 0.934
relative viability (Zosuquidar + Linsitinib; first compound 0.3162 µM): 0.797
relative viability (Zosuquidar + Linsitinib; first compound 1 µM): 0.73
relative viability (Zosuquidar + Tozasertib; first compound 0.01 µM): 0.345
relative viability (Zosuquidar + Tozasertib; first compound 0.03162 µM): 0.534
relative viability (Zosuquidar + Tozasertib; first compound 0.3162 µM): 0.393
relative viability (Zosuquidar + Tozasertib; first compound 1 µM): 0.376

NCI-H1915
relative viability (Kobe2602 + Trametinib; first compound 0.2 µM): 0.291
relative viability (Kobe2602 + Trametinib; first compound 0.6325 µM): 0.312
relative viability (Kobe2602 + Trametinib; first compound 2 µM): 0.292
relative viability (Kobe2602 + Trametinib; first compound 6.325 µM): 0.312
relative viability (Kobe2602 + Trametinib; first compound 20 µM): 0.346
relative viability (Kobe2602 + OSI-027; first compound 0.2 µM): 0.596
relative viability (Kobe2602 + OSI-027; first compound 0.6325 µM): 0.71
relative viability (Kobe2602 + OSI-027; first compound 2 µM): 0.612
relative viability (Kobe2602 + OSI-027; first compound 6.325 µM): 0.656
relative viability (Kobe2602 + OSI-027; first compound 20 µM): 0.643
relative viability (Zosuquidar + Linsitinib; first compound 0.01 µM): 1.14
relative viability (Zosuquidar + Linsitinib; first compound 0.03162 µM): 1.07
relative viability (Zosuquidar + Linsitinib; first compound 0.1 µM): 1.09
relative viability (Zosuquidar + Linsitinib; first compound 0.3162 µM): 1.12
relative viability (Zosuquidar + Linsitinib; first compound 1 µM): 1.1
relative viability (Zosuquidar + Tozasertib; first compound 0.01 µM): 0.406
relative viability (Zosuquidar + Tozasertib; first compound 0.03162 µM): 0.453
relative viability (Zosuquidar + Tozasertib; first compound 0.1 µM): 0.447
relative viability (Zosuquidar + Tozasertib; first compound 0.3162 µM): 0.461
relative viability (Zosuquidar + Tozasertib; first compound 1 µM): 0.405

NCI-H1944
relative viability (Kobe2602 + Trametinib; first compound 0.2 µM): 0.418
relative viability (Kobe2602 + Trametinib; first compound 0.6325 µM): 0.409
relative viability (Kobe2602 + Trametinib; first compound 2 µM): 0.404
relative viability (Kobe2602 + Trametinib; first compound 6.325 µM): 0.442
relative viability (Kobe2602 + Trametinib; first compound 20 µM): 0.423
relative viability (Kobe2602 + OSI-027; first compound 0.2 µM): 0.453
relative viability (Kobe2602 + OSI-027; first compound 0.6325 µM): 0.48
relative viability (Kobe2602 + OSI-027; first compound 2 µM): 0.391
relative viability (Kobe2602 + OSI-027; first compound 6.325 µM): 0.416
relative viability (Kobe2602 + OSI-027; first compound 20 µM): 0.464
relative viability (Zosuquidar + Linsitinib; first compound 0.01 µM): 1.21
relative viability (Zosuquidar + Linsitinib; first compound 0.03162 µM): 1.17
relative viability (Zosuquidar + Linsitinib; first compound 0.1 µM): 1.08
relative viability (Zosuquidar + Linsitinib; first compound 0.3162 µM): 1.09
relative viability (Zosuquidar + Linsitinib; first compound 1 µM): 1.17
relative viability (Zosuquidar + Tozasertib; first compound 0.01 µM): 0.244
relative viability (Zosuquidar + Tozasertib; first compound 0.03162 µM): 0.24
relative viability (Zosuquidar + Tozasertib; first compound 0.1 µM): 0.254
relative viability (Zosuquidar + Tozasertib; first compound 0.3162 µM): 0.243
relative viability (Zosuquidar + Tozasertib; first compound 1 µM): 0.248
